Measured values reported in DBAASP.
Converted amounts (≈) assume the structure as drawn. “And” between values parts separate entries of the source, which are not always exact repeats. Equal entries are not always repeated.

Legend:
Assay in all cases: ≥ marks a high value that may be exact or a test limit, other limits are often not marked, values filed in µg/mL are converted to µM
[1] = tested on: Staphylococcus carnosus KHS
[2] = tested on: Bacillus licheniformis X39
[3] = tested on: Staphylococcus aureus ATCC 2592
[4] = tested on: Rhodococcus rhodochrous X15
[5] = tested on: Candida albicans TIMM 0144
[6] = tested on: Staphylococcus aureus JCM 2151
[7] = tested on: Trichophyton mentagrophytes TIMM 1189
[8] = tested on: Bacillus subtilis ATCC 6633
[9] = tested on: Candida albicans ATCC 90112
[10] = tested on: Micrococcus luteus ATCC 10240
[11] = tested on: Pseudomonas aeruginosa ATCC 27853
Proteus mirabilis = tested on: Proteus mirabilis
[12] = tested on: Staphylococcus epidermidis
Streptococcus pyogenes = tested on: Streptococcus pyogenes
[13] = tested on: Stenotrophomonas maltophilia ATCC 13637
[14] = tested on: Staphylococcus aureus ATCC 25923
[15] = tested on: Escherichia coli ATCC 25922
Staphylococcus aureus = tested on: Staphylococcus aureus
[16] = tested on: Staphylococcus aureus ΔmprF
[17] = tested on: Pseudomonas aeruginosa CUN 4158-02
[18] = tested on: Staphylococcus aureus ΔmprFpRBsyn
[19] = tested on: Staphylococcus aureus ATCC 43300
[20] = tested on: Bordetella bronchiseptica CUN 11844-99
[21] = tested on: Acinetobacter baumannii ATCC 19606
[22] = tested on: Brucella abortus 9.49 (per-)
Yersinia pestis KIM pYV = tested on: Yersinia pestis KIM pYV
[23] = tested on: Acinetobacter baumannii KCTC 2508
Acinetobacter baumannii = tested on: Acinetobacter baumannii
[24] = tested on: Escherichia coli ATCC 33694
[25] = tested on: Salmonella enterica subsp. enterica serovar Typhi S5
[26] = tested on: Salmonella enterica subsp. enterica serovar Typhimurium ATCC 700408
Escherichia coli DC2 = tested on: Escherichia coli DC2
[27] = tested on: Escherichia coli DSM 1103
Escherichia coli BL21AI = tested on: Escherichia coli BL21AI
[28] = tested on: Agrobacterium tumefaciens ATCC 15955
Escherichia coli 45849 = tested on: Escherichia coli 45849
[29] = tested on: Klebsiella pneumoniae DSM 681
Escherichia coli D31 = tested on: Escherichia coli D31
[30] = tested on: Klebsiella pneumoniae 123132
[31] = tested on: Klebsiella pneumoniae K6 ATCC 700603
[32] = tested on: Fusarium haematococcum 160.2.2
[33] = tested on: Neurospora crassa CBS 327-54

Compound: CC[C@H](C)[C@H](NC(=O)[C@H](CC(C)C)NC(=O)CNC(=O)[C@H](C)NC(=O)[C@H](CC(C)C)NC(=O)[C@@H](N)Cc1ccccc1)C(=O)NCC(=O)NCC(=O)N[C@@H](CC(C)C)C(=O)N[C@@H](C)C(=O)N[C@@H](CCCCN)C(=O)N[C@@H](CCSC)C(=O)N[C@@H](CC(C)C)C(N)=O [FLAGLIGGLAKML]
- MIC [1]: 9.5 µM (≈ 12.4 µg/mL)
- MIC [2]: 19 µM (≈ 24.8 µg/mL)
- MIC [3]: 9.5 µM (≈ 12.4 µg/mL)
- MIC [4]: 4.8 µM (≈ 6.25 µg/mL)

Compound: CC(=O)N[C@@H](CCCN=C(N)N)C(=O)N[C@@H](CCCN=C(N)N)C(=O)N[C@@H](Cc1c[nH]c2ccccc12)C(=O)N[C@@H](Cc1c[nH]c2ccccc12)C(=O)N[C@@H](CS)C(=O)N[C@@H](CCCN=C(N)N)C(N)=O [RRWWCR]
- MIC [5]: ≥ 52 µM
- MIC [6]: 26 µM and 12.5 µM
- MIC [7]: 6.24 µM (≈ 6.26 µg/mL)

Compound: CC(C)C[C@H](NC(=O)CNC(=O)[C@H](CCCCN)NC(=O)[C@H](CC(C)C)NC(=O)[C@H](CC(N)=O)NC(=O)[C@@H](N)CC(C)C)C(=O)N[C@@H](Cc1ccccc1)C(=O)N[C@@H](CCCCN)C(=O)N[C@@H](CCCCN)C(=O)N[C@H](C(=O)N[C@@H](C)C(=O)N[C@@H](CO)C(=O)N[C@@H](CC(C)C)C(=O)N[C@@H](CC(C)C)C(=O)N[C@H](C(=O)O)[C@@H](C)O)C(C)C [LNLKGLFKKVASLLT]
- MIC [8]: 30 µM (≈ 49.4 µg/mL)
- MIC [9]: 7.5 µM (≈ 12.3 µg/mL)
- MIC [10]: 30 µM (≈ 49.4 µg/mL)
- MIC [11]: 30 µM (≈ 49.4 µg/mL)
- MIC (Proteus mirabilis): ≥ 60 µM
- MIC [12]: 30 µM (≈ 49.4 µg/mL)
- MIC (Streptococcus pyogenes): 30 µM (≈ 49.4 µg/mL)
- MIC [13]: 15 µM (≈ 24.7 µg/mL)
- MIC [14]: > 60 µM
- MIC [15]: 30 µM (≈ 49.4 µg/mL)

Compound: CC[C@H](C)[C@H](NC(=O)[C@H](CCCN=C(N)N)NC(=O)[C@H](CCCN=C(N)N)NC(=O)[C@H](CC(C)C)NC(=O)[C@H](Cc1ccccc1)NC(=O)[C@@H](NC(=O)[C@H](CCCN=C(N)N)NC(=O)[C@H](CCSC)NC(=O)[C@@H](NC(=O)[C@H](CCCCN)NC(=O)[C@H](CCCCN)NC(=O)[C@H](CO)NC(=O)[C@@H](NC(=O)[C@@H](N)CCCCN)[C@@H](C)CC)[C@@H](C)CC)[C@@H](C)O)C(=O)N[C@@H](CO)C(=O)N[C@@H](CCCCN)C(=O)N[C@@H](CC(=O)O)C(=O)N[C@H](C(=O)N[C@@H](CC(C)C)C(=O)N[C@H](C(=O)NCC(=O)N[C@@H](CCCCN)C(=O)N[C@@H](CCCCN)C(N)=O)[C@@H](C)O)[C@@H](C)CC [KISKKIMRTFLRRISKDILTGKK]
- MIC (Staphylococcus aureus): 11.6 µM (≈ 32 µg/mL)
- MIC [16]: 1.45 µM (≈ 4 µg/mL)
- MIC [17]: 1.45 µM (≈ 4 µg/mL)
- MIC [18]: 1.45 µM (≈ 4 µg/mL)
- MIC [19]: > 92.7 µM
- MIC [20]: 0.362 µM (≈ 1 µg/mL)
- MIC [21]: 1.45 µM (≈ 4 µg/mL)
- MIC [22]: 0.724 µM (≈ 2 µg/mL)
- MIC (Yersinia pestis KIM pYV): ≥ 46.4 µM
- MIC [15]: 1.45 µM (≈ 4 µg/mL)

Compound: CC[C@H](C)[C@H](NC(=O)CNC(=O)[C@@H](NC(=O)[C@H](CCCCN)NC(=O)[C@H](CCCCN)NC(=O)[C@H](Cc1ccccc1)NC(=O)[C@H](CC(C)C)NC(=O)[C@H](CCCCN)NC(=O)[C@H](Cc1c[nH]c2ccccc12)NC(=O)[C@@H](N)CCCCN)[C@@H](C)CC)C(=O)NCC(=O)N[C@@H](C)C(=O)N[C@H](C(=O)N[C@@H](CC(C)C)C(=O)N[C@@H](CCCCN)C(=O)N[C@H](C(=O)N[C@@H](CC(C)C)C(=O)N[C@H](C(=O)N[C@H](C(=O)NCC(N)=O)[C@@H](C)O)[C@@H](C)O)C(C)C)C(C)C [KWKLFKKIGIGAVLKVLTTG]
- MIC [8]: 1.1 µM (≈ 2.43 µg/mL)
- MIC [23]: 3.12 µM (≈ 6.86 µg/mL)
- MIC (Acinetobacter baumannii): 4.42 µM (≈ 9.71 µg/mL)
- MIC [24]: 8.84 µM (≈ 19.4 µg/mL)

Compound: CC[C@H](C)[C@H](NC(=O)[C@H](CCCN=C(N)N)NC(=O)[C@@H]1CCCN1C(=O)[C@H](Cc1cnc[nH]1)NC(=O)[C@@H]1CCCN1C(=O)[C@@H]1CCCN1C(=O)[C@H](CCCN=C(N)N)NC(=O)[C@@H]1CCCN1C(=O)[C@H](CCC(N)=O)NC(=O)[C@@H]1CCCN1C(=O)[C@H](CC(C)C)NC(=O)[C@H](Cc1ccc(O)cc1)NC(=O)[C@@H](NC(=O)[C@@H]1CCCN1C(=O)[C@H](CCCN=C(N)N)NC(=O)[C@H](CC(N)=O)NC(=O)[C@H](CC(N)=O)NC(=O)CN)C(C)C)C(N)=O [GNNRPVYLPQPRPPHPRI]
- MIC [25]: 15.2 µM (≈ 32 µg/mL)
- MIC [26]: 1.9 µM (≈ 4 µg/mL)
- MIC (Escherichia coli DC2): 3.7 µM (≈ 7.81 µg/mL)
- MIC [27]: 1.85 µM (≈ 3.91 µg/mL)
- MIC [10]: 0.925 µM (≈ 1.95 µg/mL)
- MIC (Escherichia coli BL21AI): 1.85 µM (≈ 3.91 µg/mL)
- MIC [28]: 1.23 µM (≈ 2.6 µg/mL)
- MIC (Escherichia coli 45849): 7.59 µM (≈ 16 µg/mL)
- MIC [29]: 7.41 µM (≈ 15.6 µg/mL)
- MIC (Escherichia coli D31): ≥ 60.7 µM
- MIC [30]: 15.2 µM (≈ 32 µg/mL)
- MIC [31]: ≥ 60.7 µM

Compound: CC[C@H](C)[C@H](NC(=O)[C@H](CCCN=C(N)N)NC(=O)[C@H](CCC(=O)O)NC(=O)[C@H](CC(=O)O)NC(=O)CNC(=O)[C@H](CCCN=C(N)N)NC(=O)[C@H](CC(C)C)NC(=O)[C@@H](N)[C@@H](C)O)C(=O)N[C@@H](CC(C)C)C(=O)N[C@@H](CO)C(=O)N[C@H](C(=O)N[C@@H](CC(C)C)C(=O)N[C@@H](CCCN=C(N)N)C(=O)N[C@@H](Cc1cnc[nH]1)C(=O)N[C@@H](CCC(N)=O)C(=O)N[C@@H](CC(N)=O)C(=O)N[C@@H](CC(C)C)C(=O)N[C@@H](CC(C)C)C(=O)N[C@@H](CCCCN)C(=O)N[C@@H](CCC(=O)O)C(=O)O)[C@@H](C)CC [TLRGDERILSILRHQNLLKE]
- MIC [32]: 30 µM (≈ 72.1 µg/mL)
- MIC [33]: ≥ 100 µM
